Consider twelve compounds from patent US12558428B2, “Heterobifunctional compounds and their use in treating disease” (Halda Therapeutics OpCo, Inc., priority 2024, dated 2026).

Holding throughout (assay type): cell-based
Assay [1] concerns T-Rex 293 cells having increased expression of estrogen receptor alpha protein. Nature of the assay: Cellular growth inhibition assay, T-Rex 293 cells, (+) doxycycline. To be noted: T-REx-293, 72 h, Table 7-A; T-Rex 293 cells with doxycycline (increased ERα expression); 72 hours; CellTiter-Glo; read-out: (+) Dox GI50. In a few lines:
(§1)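 Cells of an inducible ERα-expressing T-Rex 293 clone are seeded in charcoal-dextran FBS medium with or without 3 ng/mL doxycycline, then treated after 24 h with compound dilutions (0.5% DMSO) for 72 h. Growth inhibition is measured by CellTiter-Glo luminescence and expressed as GI50.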
In general terms: Cellular ATP, detected with luciferase, serves as a proxy for viable cell number.

For assay [2], the system named is T-Rex 293 cells lacking increased expression of estrogen receptor alpha protein. In words: Cellular growth inhibition assay, T-Rex 293 cells, (−) doxycycline. To be noted: T-REx-293, 72 h, Table 7-A; T-Rex 293 cells without doxycycline (lacking increased ERα expression); 72 hours; CellTiter-Glo; read-out: (−) Dox GI50. In a few lines: as §1
Assay [3] relates to MCF7 cells (ATCC #HTB-22). Nature of the assay: Cellular growth inhibition assay, MCF7 cells purchased from ATCC. To be noted: Homo sapiens, MCF7, 144 h, Table 8-A; MCF7 cells purchased from ATCC; six days; CellTiter-Glo; read-out: GI50. In a few lines: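 GI50 values come from a four-parameter fit of CellTiter-Glo 2.0 luminescence after six days of compound exposure at 37° C. Seeding density depended on the source: 225 cells/well for ECACC MCF7, 1,500 for ATCC. Medium was RPMI 1640 with 10% FBS and 0.2 U/ml insulin.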

As a reminder, the GI50 is the concentration at which growth is held to half of that of the control. Turning to `Cc1sc2c(c1C)C(c1ccc(N3CCC(C)(CN4CCC(c5ccc([C@@H]6c7ccc(O)cc7CC[C@@H]6c6ccccc6)cc5)CC4)CC3)cc1)=N[C@@H](C)c1nnc(C)n1-2` [III-145], the concentration for 50% growth inhibition (GI50) is 500 to 2500 nM in assay [1], 500 to 2500 nM in assay [2] and 50 to 500 nM in assay [3].

As to `Cc1sc2c(c1C)C(c1ccc(N3CCC(O)(CN4CCN(c5ccc([C@@H]6c7ccc(C(=O)O)cc7CC[C@@H]6c6ccccc6)cc5)CC4)CC3)cc1)=N[C@H](Cc1ncco1)c1nnc(C)n1-2` [III-201], the GI50 in assay [1], in assay [2] and in assay [3] was 50 to 500 nM in each case.

With `Cc1sc2c(c1C)C(c1ccc(N3CC(CN4CCC(CC5CN(c6ccc([C@@H]7c8ccc(O)cc8CC[C@@H]7c7ccccc7)cc6)C5)CC4)C3)cc1)=N[C@@H](C)c1nnc(C)n1-2` [III-133], the GI50 was under 50 nM in assay [1], 50 to 500 nM in assay [2] and 50 to 500 nM in assay [3].

For `Cc1sc2c(c1C)C(c1ccc(C34COC(CN5CCN(c6ccc([C@@H]7c8ccc(O)cc8CC[C@@H]7c7ccccc7)cc6)CC5)(C3)C4)cc1)=N[C@@H](C)c1nnc(C)n1-2` [III-82], the concentration for 50% growth inhibition (GI50) in assay [1] was in the range of 50 to 500 nM; in assay [2] it was 500 to 2500 nM; in assay [3], 50 to 500 nM.

For `COc1cc(N2CCN(CC3(O)CCN(c4ccc(C5=N[C@@H](C)c6nnc(C)n6-c6sc(C)c(C)c65)cc4)CC3)CC2)c(F)cc1[C@@H]1c2ccc(O)cc2CC[C@@H]1c1ccccc1` (single isomer, unassigned) [III-311], the GI50 is under 50 nM in assay [1], 500 to 2500 nM in assay [2] and under 50 nM in assay [3].

For the compound `Cc1sc2c(c1C)C(c1ccc(N3CCC(O)(CN4CCN(c5ccc(C6=C(c7cccc(Cl)c7)CCCc7cc(C(=O)O)ccc76)cc5)CC4)CC3)cc1)=N[C@@H](C)c1nnc(C)n1-2` [IV-51], the GI50 in assay [1] is under 50 nM; in assay [2], 500 to 2500 nM; in assay [3] it was under 50 nM.

With `Cc1sc2c(c1C)C(c1ccc(N3CC(CN4CC(COc5ccc([C@@H]6c7ccc(O)cc7CC[C@@H]6c6ccccc6)cc5)C4)C3)cc1)=N[C@@H](C)c1nnc(C)n1-2` [III-101], the concentration for 50% growth inhibition (GI50) in assay [1] is under 50 nM; in assay [2], 50 to 500 nM; in assay [3], 50 to 500 nM.

For `COc1cc([C@H]2c3ccc(O)cc3CC[C@H]2c2ccc(F)cc2)ccc1N1CCN(CC2(O)CCN(c3ccc(C4=N[C@@H](C)c5nnc(C)n5-c5sc(C)c(C)c54)cc3)CC2)CC1` [III-254], the figures for the GI50 in assay [1], in assay [2] and in assay [3] were under 50 nM, 500 to 2500 nM and 50 to 500 nM, respectively.

As to `Cc1sc2c(c1C)C(c1ccc(C3CN(CC4CCN(c5ccc([C@@H]6c7ccc(O)cc7CC[C@@H]6c6ccccc6)cc5)CC4)C3)cc1)=N[C@@H](C)c1nnc(C)n1-2` [III-141], the 50% growth inhibitory concentration (GI50) in assay [1] was 50 to 500 nM; in assay [2], 500 to 2500 nM; in assay [3], 50 to 500 nM.

For `Cc1sc2c(c1C)C(c1ccc(C3CN(CC4(O)CCN(C(=O)C5CN(c6ccc([C@@H]7c8ccc(O)cc8CC[C@@H]7c7ccccc7)cc6)C5)CC4)C3)cc1)=N[C@@H](C)c1nnc(C)n1-2` [III-171], the figures for the concentration for 50% growth inhibition (GI50) in assay [1], in assay [2] and in assay [3] were under 50 nM, 50 to 500 nM and 50 to 500 nM, respectively.

On to `Cc1sc2c(c1C)C(c1ccc(N3CCC(CN4CCC(c5ccc([C@@H]6c7ccc(O)cc7CC[C@@H]6c6ccccc6)cc5)CC4)CC3)cc1)=N[C@@H](C)c1nnc(C)n1-2` [III-132], for which the figures for the 50% growth inhibitory concentration (GI50) in assay [1], in assay [2] and in assay [3] were 50 to 500 nM, 500 to 2500 nM and 50 to 500 nM, respectively.

With `Cc1sc2c(c1C)C(c1ccc(N3CCC(N4CC(Oc5ccc([C@H]6c7ccc(O)cc7CC[C@H]6c6ccccc6)cc5)C4)CC3)cc1)=N[C@@H](C)c1nnc(C)n1-2` [III-8], the results for the GI50 in assay [1], in assay [2] and in assay [3] were 500 to 2500 nM, 500 to 2500 nM and 50 to 500 nM, respectively.
